Structures can show the parent of a compound that is named as a salt.
What was measured:
[1] = system: SKOV3: human ovarian carcinoma cell line; experiment: Proliferation IC50 assay, oxic/hypoxic, SKOV3; type: cell-based; conditions: Table 3; for IC50: 4 h exposure under aerobic conditions; for HCR (hypoxic cytotoxicity ratio) SKOV3: IC50(aerobic)/IC10(hypoxic)
[2] = system: HT29: human colon cancer cell line; experiment: Proliferation IC50 assay, oxic/hypoxic, HT29; type: cell-based; conditions: Table 3; for IC50: 4 h exposure under aerobic conditions; for HCR (hypoxic cytotoxicity ratio) HT29: IC50(aerobic)/IC10(hypoxic)

Compound | melting point | HCR (hypoxic cytotoxicity ratio) SKOV3 [1] | HCR (hypoxic cytotoxicity ratio) HT29 [2] | IC50 ([1]; Homo sapiens, SK-OV-3) [µM] | IC50 ([2]; Homo sapiens, HT-29) [µM] | other results
NS(=O)(=O)c1ccc2c3c(cc([N+](=O)[O-])c2c1)N(C(=O)c1cc2cc(OCCO)ccc2[nH]1)CC3CCl (centres unmarked) | 231 to 234 °C | – | – | – | – | –
NS(=O)(=O)c1ccc2c3c(cc([N+](=O)[O-])c2c1)N(C(=O)c1cc2cc(OCCOP(=O)(O)O)ccc2[nH]1)CC3CCl (centres unmarked) | 207 to 211 °C | – | – | – | – | –
COc1cc2cc(C(=O)N3CC(CCl)c4c3cc([N+](=O)[O-])c3cc(S(=O)(=O)NCCOP(=O)(O)O)ccc43)[nH]c2c(OC)c1OC (centres unmarked) | 228 to 232 °C | – | – | – | – | –
CCC(=O)NS(=O)(=O)c1ccc2c3c(cc([N+](=O)[O-])c2c1)N(C(=O)c1cc2cc(OCCN(C)C)ccc2[nH]1)CC3CCl (centres unmarked) | 221 to 225 °C | – | – | – | – | –
CN(C)CCOc1ccc2[nH]c(C(=O)N3CC(CCl)c4c3cc([N+](=O)[O-])c3c([N+](=O)[O-])cccc43)cc2c1 (centres unmarked) (as salt: HCl) [Compound 2, 1-(Chloromethyl)-3-(5-[2-(dimethylamino)ethoxy]indol-2-carbonyl)-5,6-dinitro-1,2-dihydro-3H-benzo[e]indole] | 225 to 226 °C | – | – | – | – | –
CN(C)CCOc1ccc2[nH]c(C(=O)N3CC(CCl)c4c3cc([N+](=O)[O-])c3cc([N+](=O)[O-])ccc43)cc2c1 (centres unmarked) (as salt: HCl) [Compound 9, 1-(Chloromethyl)-3-{5-[2-(dimethylamino)ethoxy]indol-2-carbonyl}-5,7-dinitro-1,2-dihydro-3H-benzo[e]indole] | 263 to 264 °C | – | – | – | – | –
COC(=O)c1ccc2c3c(cc([N+](=O)[O-])c2c1)N(C(=O)c1cc2cc(OCCN(C)C)ccc2[nH]1)CC3CCl (centres unmarked) (as salt: HCl) [Compound 14, Methyl 1-(chloromethyl)-3-{5-[2-(dimethylamino)ethoxy]indol-2-carbonyl}-5-nitro-1,2-dihydro-3H-benzo[e]indole-7-carboxylate] | > 300 °C | – | – | – | – | –
CN(C)CCOc1ccc2[nH]c(C(=O)N3CC(CCl)c4c3cc([N+](=O)[O-])c3cc(C(=O)NCCO)ccc43)cc2c1 (centres unmarked) (as salt: HCl) [Compound 19, 1-(Chloromethyl)-3-(5-[2-(dimethylamino)ethoxy]indol-2-carbonyl)-N-(2-hydroxyethyl)-5-nitro-1,2-dihydro-3H-benzo[e]indole-7-carboxamide] | 231 to 233 °C (dec.) | – | – | – | – | –
CN(C)CCOc1ccc2[nH]c(C(=O)N3CC(CCl)c4c3cc([N+](=O)[O-])c3cc(C#N)ccc43)cc2c1 (centres unmarked) (as salt: HCl) [Compound 22, 1-(Chloromethyl)-3-{5-[2-(dimethylamino)ethoxy]indol-2-carbonyl}-5-nitro-1,2-dihydro-3H-benzo[e]indole-7-carbonitrile] | > 300 °C | – | – | – | – | –
CN(C)CCOc1ccc2[nH]c(C(=O)N3CC(CCl)c4c3cc([N+](=O)[O-])c3cc(S(C)(=O)=O)ccc43)cc2c1 (centres unmarked) (as salt: HCl) [Compound 24, 1-(Chloromethyl)-3-{5-[2-(dimethylamino)ethoxy]indol-2-carbonyl}-7-(methylsulfonyl)-5-nitro-1,2-dihydro-3H-benzo[e]indole] | 250 to 252 °C | – | – | – | – | –
CN(C)CCOc1ccc2[nH]c(C(=O)N3CC(CCl)c4c3cc([N+](=O)[O-])c3cc(S(N)(=O)=O)ccc43)cc2c1 (centres unmarked) (as salt: HCl) [Compound 26, 1-(Chloromethyl)-3-{5-[2-(dimethylamino)ethoxy]indol-2-carbonyl}-5-nitro-1,2-dihydro-3H-benzo[e]indole-7-sulfonamide] | > 350 °C | – | – | – | – | –
CNS(=O)(=O)c1ccc2c3c(cc([N+](=O)[O-])c2c1)N(C(=O)c1cc2cc(OCCN(C)C)ccc2[nH]1)CC3CCl (centres unmarked) (as salt: HCl) [Compound 32, 1-(Chloromethyl)-3-{5-[2-(dimethylamino)ethoxy]indol-2-carbonyl}-N-methyl-5-nitro-1,2-dihydro-3H-benzo[e]indole-7-sulfonamide] | > 350 °C | – | – | – | – | –
CN(C)CCOc1ccc2[nH]c(C(=O)N3CC(CCl)c4c3cc([N+](=O)[O-])c3cc(S(=O)(=O)N(C)C)ccc43)cc2c1 (centres unmarked) (as salt: HCl) [Compound 38, 1-(Chloromethyl)-3-{5-[2-(dimethylamino)ethoxy]indol-2-carbonyl}-N,N-dimethyl-5-nitro-1,2-dihydro-3H-benzo[e]indole-7-sulfonamide] | > 350 °C | – | – | – | – | –
COc1cc2cc(C(=O)N3CC(CCl)c4c3cc([N+](=O)[O-])c3ccc(C(=O)NCCN(C)C)cc43)[nH]c2c(OC)c1OC (centres unmarked) (as salt: HCl) [Compound 44, 1-(Chloromethyl)-N-[2-(dimethylamino)ethyl]-5-nitro-3-(5,6,7-trimethoxyindol-2-carbonyl)-1,2-dihydro-3H-benzo[e]indole-8-carboxamide] | 228 to 229 °C (dec.) | – | – | – | – | –
CC(=O)c1cccc2c3c(cc([N+](=O)[O-])c12)N(C(=O)c1cc2cc(OCCN(C)C)ccc2[nH]1)CC3CCl (centres unmarked) [Compound 4] | – | 12 | 5.2 | – | – | IC50 [1]: 0.64 µM; IC50 [2]: 0.2 µM
CN(C)CCOc1ccc2[nH]c(C(=O)N3CC(CCl)c4c3cc([N+](=O)[O-])c3cc([N+](=O)[O-])ccc43)cc2c1 (centres unmarked) [Compound 9, 1-(Chloromethyl)-3-{5-[2-(dimethylamino)ethoxy]indol-2-carbonyl}-5,7-dinitro-1,2-dihydro-3H-benzo[e]indole] | – | 9.3 | 9.6 | 1.1 | 0.89 | –
CN(C)CCOc1ccc2[nH]c(C(=O)N3CC(CCl)c4c3cc([N+](=O)[O-])c3cc(C(=O)NCCO)ccc43)cc2c1 (centres unmarked) [Compound 19, 1-(Chloromethyl)-3-(5-[2-(dimethylamino)ethoxy]indol-2-carbonyl)-N-(2-hydroxyethyl)-5-nitro-1,2-dihydro-3H-benzo[e]indole-7-carboxamide] | – | 160 | 490 | 8.9 | 12 | –
COc1cc2cc(C(=O)N3CC(CCl)c4c3cc([N+](=O)[O-])c3cc(C#N)ccc43)[nH]c2c(OC)c1OC (centres unmarked) [Compound 21] | – | 13 | 2.5 | – | – | IC50 [1]: 6.4 µM; IC50 [2]: 5.3 µM
COc1cc2cc(C(=O)N3CC(CCl)c4c3cc([N+](=O)[O-])c3cc(S(N)(=O)=O)ccc43)[nH]c2c(OC)c1OC (centres unmarked) [Compound 25, 1-(Chloromethyl)-5-nitro-3-(5,6,7-trimethoxyindol-2-carbonyl)-1,2-dihydro-3H-benzo[e]indole-7-sulfonamide] | – | 10 | 3.6 | 37 | 43 | –
CN(C)CCOc1ccc2[nH]c(C(=O)N3CC(CCl)c4c3cc([N+](=O)[O-])c3cc(S(=O)(=O)NO)ccc43)cc2c1.Cl (centres unmarked) [Compound 30, 1-(Chloromethyl)-3-{5-[2-(dimethylamino)ethoxy]indol-2-carbonyl}-N-hydroxy-5-nitro-4,2-dihydro-3H-benzo[e]indole-7-sulfonamide hydrochloride] | – | 55 | 160 | – | – | IC50 [1]: 24 µM; IC50 [2]: 24 µM
CN(C)CCOc1ccc2[nH]c(C(=O)N3CC(CCl)c4c3cc([N+](=O)[O-])c3cc(S(=O)(=O)NN)ccc43)cc2c1.Cl.Cl (centres unmarked) [Compound 31, 1-(Chloromethyl)-3-{5-[2-(dimethylamino)ethoxy]indol-2-carbonyl}-5-nitro-1,2-dihydro-3H-benzo[e]indole-7-sulfonohydrazide dihydrochloride] | – | 160 | 220 | 33 | 31 | –
CNS(=O)(=O)c1ccc2c3c(cc([N+](=O)[O-])c2c1)N(C(=O)c1cc2cc(OCCN(C)C)ccc2[nH]1)CC3CCl (centres unmarked) [Compound 32, 1-(Chloromethyl)-3-{5-[2-(dimethylamino)ethoxy]indol-2-carbonyl}-N-methyl-5-nitro-1,2-dihydro-3H-benzo[e]indole-7-sulfonamide] | – | 21 | 24 | 2.6 | 2.7 | –
CN(C)CCOc1ccc2[nH]c(C(=O)N3CC(CCl)c4c3cc([N+](=O)[O-])c3cc(S(=O)(=O)N(C)C)ccc43)cc2c1 (centres unmarked) [Compound 38, 1-(Chloromethyl)-3-{5-[2-(dimethylamino)ethoxy]indol-2-carbonyl}-N,N-dimethyl-5-nitro-1,2-dihydro-3H-benzo[e]indole-7-sulfonamide] | – | 2.4 | 3.6 | 0.5 | 1.1 | –
COC(=O)c1ccc2c([N+](=O)[O-])cc3c(c2c1)C(CCl)CN3C(=O)c1cc2cc(OCCN(C)C)ccc2[nH]1 (centres unmarked) [Compound 42, Methyl 1-(chloromethyl)-3-{5-[2-(dimethylamino)ethoxy]indol-2-carbonyl}-5-nitro-1,2-dihydro-3H-benzo[e]indole-8-carboxylate] | – | 2.4 | 1.6 | 0.52 | 0.55 | –
COc1cc2cc(C(=O)N3CC(CCl)c4c3cc([N+](=O)[O-])c3ccc(C(=O)NCCN(C)C)cc43)[nH]c2c(OC)c1OC (centres unmarked) [Compound 44, 1-(Chloromethyl)-N-[2-(dimethylamino)ethyl]-5-nitro-3-(5,6,7-trimethoxyindol-2-carbonyl)-1,2-dihydro-3H-benzo[e]indole-8-carboxamide] | – | 16 | 2.4 | 2.5 | 1.3 | –
COc1cc2cc(C(=O)N3CC(CCl)c4c3cc([N+](=O)[O-])c3cccc([N+](=O)[O-])c43)[nH]c2c(OC)c1OC (centres unmarked) [Compound 51, 1-(Chloromethyl)-5,9-dinitro-(5,6,7-trimethoxyindol-2-carbonyl)-1,2-dihydro-3H-benzo[e]indole] | – | – | 1.2 | – | – | IC50 [1]: 55 µM; IC50 [2]: 34 µM
COc1cc2cc(C(=O)N3CC(CCl)c4c3cc([N+](=O)[O-])c3ccccc43)[nH]c2c(OC)c1OC (centres unmarked) [Compound R1, reference compound] | – | 2.8 | 2.5 | 4.2 | 3.4 | –
